We go through three compounds from publication PMC9512702 (Nature Chemical Biology, 2022).

Data set [1] concerns the target SARS-CoV-2 RBD binding to immobilized ACE2 (Severe acute respiratory syndrome coronavirus 2, UniProt P0DTC2). In words: biochemical.
In another data set the target is SARS-CoV-2 RBD (Severe acute respiratory syndrome coronavirus 2, UniProt P0DTC2). Nature of the data set: biochemical. The format is binding. Conditions: KD (direct binding to RBD).
The subject of the next data set is Vero-E6 cells. Nature of the data set: Cell viability (MTT) assay, Vero-E6. The format is cell-based, monkey. Conditions: Vero-E6 cytotoxicity vs pseudovirus IC50.
A short description of data set [2]: Cell viability (MTT) assay, Vero-E6. The format is cell-based, monkey. Conditions: monkey; Vero-E6 cells, MTT, 20 μM (highest concentration tested), 48 h.
Experimental: (§1) The cell viability assay was performed by using the MTT (3-(4,5-dimethylthiazol-2-yl)-2,5-diphenyltetrazolium bromide) assay. […] The next day, 50 μl of media was removed from each well and 50 μl of the peptide was added in a dose-dependent manner. 10% DMSO (final concentration v/v) was used as a positive control for the induction of cytotoxicity. […] The plate was incubated for another 4 h in the humidified CO2 incubator, after which 100 μl of dissolving solution (10% SDS in 0.01 M HCl) was added to each well. The plate was then incubated in a CO2 incubator overnight. The next day, the plate was read for absorbance at 570 nm. The percentage viability of cells was recorded in comparison to the untreated cells.
The nature of data set [3]: Solubility measurement (peptide concentration in saturated solution). Conditions: sodium-phosphate buffer, pH 7.4, aqueous buffer, thermodynamic from solid.
Experimental: Approximately 2 mg of each peptide was added to 500 µl of buffer in 1.5-ml Eppendorf tubes. The tubes were shaken at 25 °C for 2 h on a 900 r.p.m. vortex shaker. The samples were centrifuged at 12,000 r.p.m. for 15 min to remove the precipitate and the supernatant was analyzed by ultraviolet–visible light (UV–vis) spectrometry.

SMILES strings stand for the structures. In brackets after ≈: the same amount, converted by molar mass. Several values for one entry are separate records, joined by “and”; a condition that tells them apart may be missing. Equal values may be shown once. Where a SMILES comes first, the peptide text is derived from it. [ ]: non-standard residue; d: D form. Cha = N[C@@H](CC1CCCCC1)C(=O)O; Aib = CC(C)(N)C(=O)O

Experimental for Vero-E6 cells: as §1

Take `CC[C@H](C)[C@H](NC(=O)[C@H](CC(C)C)NC(=O)[C@H](CC(=O)O)NC(=O)[C@H](CO)NC(=O)[C@@H](NC(=O)[C@H](CCCNC(=N)N)NC(=O)[C@H](CCSC)NC(=O)[C@H](CO)NC(=O)[C@H](C)NC(=O)[C@H](CCC(=O)O)NC(=O)C(C)(C)NC(=O)[C@H](CC(=O)O)NC(=O)[C@@H](C)NC(=O)[C@H](CC(C)C)NC(=O)[C@H](CCC(=O)O)NC(=O)[C@H](CC(=O)O)NC(=O)[C@H](CC(C)C)NC(=O)[C@H](CC(C)C)NC(=O)[C@H](CCCNC(=N)N)NC(=O)[C@H](CCSC)NC(=O)[C@@H](NC(=O)[C@H](CCC(=O)O)NC(=O)[C@H](Cc1ccc(O)cc1)NC(=O)[C@@H](NC(=O)[C@H](CCCCN)NC(=O)[C@H](CCC(N)=O)NC(=O)[C@H](CC(C)C)NC(=O)[C@@H](NC(=O)[C@H](Cc1c[nH]c2ccccc12)NC(=O)[C@H](CCC(=O)O)NC(=O)[C@H](CCCCN)NC(=O)[C@@H](N)CC(=O)O)[C@@H](C)CC)[C@@H](C)CC)[C@@H](C)CC)C(C)C)C(=O)N[C@@H](Cc1ccc(O)cc1)C(=O)N[C@@H](CCC(=O)O)C(=O)N[C@@H](CC1CCCCC1)C(=O)N[C@@H](CCSC)C(=O)N[C@@H](CCCCN)C(=O)N[C@@H](CCCCN)C(N)=O` [SIH-11] (H-DKEWILQKIYEIMRLLDEL[dA]D[Aib]EASMRVSDLIYE[Cha]MKK-NH2): the 50% inhibitory concentration (IC50) in data set [1] lay in the range of 0.125 to 0.25 µM. Further, binding at SARS-CoV-2 RBD was characterised by a dissociation constant (Kd) of 0.0013 µM. Also, in the data set with Vero-E6 cells, the “Selectivity index (50% cytotoxic concentration divided by IC50)” value was > 50,000. The same compound displayed a viability at 48 h, 20 µM in data set [2] above 75%.
As for `CC[C@H](C)[C@H](NC(=O)[C@H](CC(C)C)NC(=O)[C@H](CC(=O)O)NC(=O)[C@H](CO)NC(=O)[C@@H](NC(=O)[C@H](CCCNC(=N)N)NC(=O)[C@H](CCSC)NC(=O)[C@H](CO)NC(=O)[C@H](C)NC(=O)[C@H](CCC(=O)O)NC(=O)C(C)(C)NC(=O)[C@H](CC(=O)O)NC(=O)[C@@H](C)NC(=O)[C@H](CC(C)C)NC(=O)[C@H](CCC(=O)O)NC(=O)[C@H](CC(=O)O)NC(=O)[C@H](CC(C)C)NC(=O)[C@H](CC(C)C)NC(=O)[C@H](CCCNC(=N)N)NC(=O)[C@H](CCSC)NC(=O)[C@@H](NC(=O)[C@H](CCC(=O)O)NC(=O)[C@H](Cc1ccc(O)cc1)NC(=O)[C@@H](NC(=O)[C@H](CCCCN)NC(=O)[C@H](CCC(N)=O)NC(=O)[C@H](CC(C)C)NC(=O)[C@@H](NC(=O)[C@H](Cc1c[nH]c2ccccc12)NC(=O)[C@H](CCC(=O)O)NC(=O)[C@H](CCCCN)NC(=O)[C@@H](N)CC(=O)O)[C@@H](C)CC)[C@@H](C)CC)[C@@H](C)CC)C(C)C)C(=O)N[C@@H](Cc1ccc(O)cc1)C(=O)N[C@@H](CCC(=O)O)C(=O)N[C@@H](Cc1ccccc1)C(=O)N[C@@H](CCSC)C(=O)N[C@@H](CCCCN)C(=O)N[C@@H](CCCCN)C(N)=O` [SIH-5] (H-DKEWILQKIYEIMRLLDEL[dA]D[Aib]EASMRVSDLIYEFMKK-NH2), the IC50 in data set [1] is 0.125 to 0.25 µM. In data set [3], this compound had a thermodynamic solubility at 2 h above 700 µM. The Kd on SARS-CoV-2 RBD (re-analyzed) is ~0.0009 µM and 0.0009 µM. In data set [2], the viability at 48 h, 20 µM was above 75%.
In the case of `CC[C@H](C)[C@H](NC(=O)[C@H](CC(C)C)NC(=O)[C@H](CC(=O)O)NC(=O)[C@H](CO)NC(=O)[C@@H](NC(=O)[C@H](CCCNC(=N)N)NC(=O)[C@H](CCSC)NC(=O)[C@H](CO)NC(=O)[C@H](C)NC(=O)[C@H](CCC(=O)O)NC(=O)C(C)(C)NC(=O)[C@H](Cc1c[nH]cn1)NC(=O)CNC(=O)[C@H](CC(C)C)NC(=O)[C@H](CCC(=O)O)NC(=O)[C@H](CC(=O)O)NC(=O)[C@H](CC(C)C)NC(=O)[C@H](CC(C)C)NC(=O)[C@H](CCCNC(=N)N)NC(=O)[C@H](CCSC)NC(=O)[C@@H](NC(=O)[C@H](CCC(=O)O)NC(=O)[C@H](Cc1ccc(O)cc1)NC(=O)[C@@H](NC(=O)[C@H](CCCCN)NC(=O)[C@H](CCC(N)=O)NC(=O)[C@H](CC(C)C)NC(=O)[C@@H](NC(=O)[C@H](Cc1c[nH]c2ccccc12)NC(=O)[C@H](CCC(=O)O)NC(=O)[C@H](CCCCN)NC(=O)[C@@H](N)CC(=O)O)[C@@H](C)CC)[C@@H](C)CC)[C@@H](C)CC)C(C)C)C(=O)N[C@@H](Cc1ccc(O)cc1)C(=O)N[C@@H](CCC(=O)O)C(=O)N[C@@H](Cc1ccccc1)C(=O)N[C@@H](CCSC)C(=O)N[C@@H](CCCCN)C(=O)N[C@@H](CCCCN)C(N)=O` [SIH-2] (H-DKEWILQKIYEIMRLLDELGH[Aib]EASMRVSDLIYEFMKK-NH2), the IC50 in data set [1] lay within 1.25 to 2.5 µM. Also, the solubility (thermodynamic) at 2 h in data set [3] was 32 µM (≈ 149 µg/mL).
